Four compounds from ChEMBL document CHEMBL1201862, “PubChem BioAssay data set” (2004) can be followed below.

In test [1] the target is Troponin, cardiac muscle (Homo sapiens, UniProt P19429+P45379+P63316). Nature of the test: Fluorescence-based biochemical high throughput dose response assay for activators of the calcium sensitivity of cardiac Regulated Thin Filaments (RTF). [Related pubchem assays (depositor defined):AID493008, AID493018, AID504382, AID504383]. The class given is protein-complex assay.

Test [2] deals with Perilipin-1/ABHD5 (Homo sapiens, UniProt O60240+Q8WTS1). Nature of the test: Luminescence-based biochemical high throughput dose response assay for inhibitors of the interaction of the lipase co-activator protein, abhydrolase domain containing 5 (ABHD5) with perilipin-1 (PLIN1) (2K validation set). [Related pubchem assays (depositor defined):AID493027, AID493057].
Test [3] has as its target Cytochrome P450 2C9 (Homo sapiens, UniProt P11712).
In test [4] the target is 1-acylglycerol-3-phosphate O-acyltransferase ABHD5/Perilipin-5 (Homo sapiens, UniProt Q00G26+Q8WTS1). The experiment in a line: Luminescence-based biochemical high throughput dose response assay for inhibitors of the interaction of the lipase co-activator protein, abhydrolase domain containing 5 (ABHD5) with perilipin-5 (MLDP; PLIN5) (2K validation set). [Related pubchem assays (depositor defined):AID493035, AID493241].

The target in test [5] is T1, E3 ubiquitin-protein ligase XIAP (Homo sapiens, UniProt P98170). Nature of the test: Counter Screen using XIAP-Bir3 for Chemical Antagonists of Bir1/2 domains of IAP-family anti-apoptotic proteins. [Related pubchem assays (depositor defined):AID1018, AID1449, AID1514, AID1638, AID1749, AID1750, AID488957, AID488963].
In test [6] the target is T1, E3 ubiquitin-protein ligase XIAP. The experiment in a line: XIAP antagonists, biochemical, IAP family, fluorescence polarization (AID 1018). The class given is functional.
Test [7] has as its target T2, Zinc finger protein mex-5 (Caenorhabditis elegans, UniProt Q9XUB2).
T2 sequence (Q9XUB2 whole entry): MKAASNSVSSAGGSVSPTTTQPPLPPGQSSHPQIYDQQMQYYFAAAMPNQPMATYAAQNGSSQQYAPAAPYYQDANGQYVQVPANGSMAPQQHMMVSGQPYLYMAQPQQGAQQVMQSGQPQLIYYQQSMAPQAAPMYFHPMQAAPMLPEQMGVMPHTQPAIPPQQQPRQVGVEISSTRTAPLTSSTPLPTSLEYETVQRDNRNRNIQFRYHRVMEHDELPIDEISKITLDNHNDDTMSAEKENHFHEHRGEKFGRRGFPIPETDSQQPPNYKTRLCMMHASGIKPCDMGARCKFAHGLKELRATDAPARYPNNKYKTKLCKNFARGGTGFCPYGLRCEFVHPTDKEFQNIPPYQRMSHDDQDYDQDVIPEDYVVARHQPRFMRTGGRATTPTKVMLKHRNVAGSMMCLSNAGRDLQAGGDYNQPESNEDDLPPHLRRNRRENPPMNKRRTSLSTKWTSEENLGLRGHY
The experiment in a line: MEX-5/TCR-2 RNA interaction inhibitors, dose response, biochemical, C. elegans, fluorescence polarization (AID 1960). For orientation: In fluorescence polarisation assays a small probe gives low polarisation when free and higher when bound to something large.

Test [8] addresses T3, DNA repair protein RAD52 homolog (Homo sapiens, UniProt P43351).
T3 sequence (P43351 whole entry): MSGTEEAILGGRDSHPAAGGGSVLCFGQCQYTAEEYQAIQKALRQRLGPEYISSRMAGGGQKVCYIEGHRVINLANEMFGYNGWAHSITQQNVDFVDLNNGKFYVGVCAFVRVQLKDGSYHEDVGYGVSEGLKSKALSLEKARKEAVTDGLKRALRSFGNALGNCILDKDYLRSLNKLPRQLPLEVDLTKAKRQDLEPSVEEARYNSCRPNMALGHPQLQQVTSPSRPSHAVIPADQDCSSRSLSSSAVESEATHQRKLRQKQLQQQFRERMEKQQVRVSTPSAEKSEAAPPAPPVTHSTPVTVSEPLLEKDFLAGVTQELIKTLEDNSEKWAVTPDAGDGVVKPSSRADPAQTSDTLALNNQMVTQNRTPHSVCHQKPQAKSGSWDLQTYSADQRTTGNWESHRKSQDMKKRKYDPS
It counts as functional, biochemical.

Test [9] addresses Eukaryotic translation initiation factor 4E (Mus musculus, UniProt P63073). The experiment in a line: eIF4E–eIF4G protein interaction inhibitors, dose response, biochemical, TR-FRET (AID 855).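 Note: potency for disrupting eIF4E binding to eIF4GI seen as loss of FRET.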 The class given is functional. (Time-resolved FRET reads energy transfer from a long-lived donor to a nearby acceptor.)
For test [10], the target named is Glutathione-S-transferase (Schistosoma japonicum, UniProt Q26513). The experiment in a line: biotin-GST/anti-GST TR-FRET signal inhibitors, dose response, artefact control for Vif-APOBEC3G degradation inhibitor project, biochemical (AID 1117362). It counts as functional.
The target in test [11] is T4, Runt-related transcription factor 1/Core-binding factor subunit beta (Homo sapiens, UniProt Q01196+Q13951). The experiment in a line: Confirmation of compounds inhibiting the binding between the RUNX1 Runt domain and CBFb-SMMHC via a time resolved fluorescence resonance energy transfer (TR-FRET) assay. [Related pubchem assays (depositor defined):AID1434, AID1438, AID1496, AID1560, AID1645]. It counts as protein assay.

Test [12] addresses 5-hydroxytryptamine receptor 2A (Mus musculus, UniProt P35363). The class given is functional, cell-based.
Test [13] concerns the target T4, Runt-related transcription factor 1/Core-binding factor subunit beta. Nature of the test: inhibitors of RUNX1 Runt–CBFb-SMMHC binding, primary screen, biochemical, FRET, Cerulean-Runt, Venus-CBFb-SMMHC, uHTS (AID 1434).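 Note: partner is the CBFb-SMMHC leukemia fusion protein rather than wild-type CBFb.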 The class given is protein assay.
The target in test [14] is Large T antigen (Simian virus 40, UniProt P03070). It counts as functional, Betapolyomavirus macacae.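 Note: Confirmatory-stage PubChem screen for compounds that inhibit SV40 T antigen.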
In test [15] the target is T5, Mannose-6-phosphate isomerase (Homo sapiens, UniProt P34949).
T5 sequence (P34949 whole entry): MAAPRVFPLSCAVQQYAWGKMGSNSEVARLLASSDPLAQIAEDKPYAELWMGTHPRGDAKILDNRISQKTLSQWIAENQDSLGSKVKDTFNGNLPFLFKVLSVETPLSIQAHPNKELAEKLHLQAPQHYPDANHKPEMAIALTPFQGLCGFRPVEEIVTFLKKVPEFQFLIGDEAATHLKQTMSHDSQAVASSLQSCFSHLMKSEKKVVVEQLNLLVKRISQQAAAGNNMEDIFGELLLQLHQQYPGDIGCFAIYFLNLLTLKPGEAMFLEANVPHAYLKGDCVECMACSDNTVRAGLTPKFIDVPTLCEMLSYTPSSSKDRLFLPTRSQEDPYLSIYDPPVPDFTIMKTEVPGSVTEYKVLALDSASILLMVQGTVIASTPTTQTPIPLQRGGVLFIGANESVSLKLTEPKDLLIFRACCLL
The experiment in a line: human PMI inhibitors, high substrate, primary screen, biochemical, fluorescence intensity, high mannose 6-phosphate (AID 1220).

The target in test [16] is T4, Runt-related transcription factor 1/Core-binding factor subunit beta. Nature of the test: inhibitors of RUNX1 Runt–CBFb-SMMHC binding, biochemical, TR-FRET (AID 1438). It counts as protein assay.
Test [17] in a line: THP-1 cell cytotoxicity, dose response, cytotoxicity control for Vif-APOBEC3G degradation inhibitor project, THP-1 cells (AID 1117359). It counts as functional. The conditions noted are these: Human immunodeficiency virus 1, THP-1.
Test [18] concerns the target Mu-type opioid receptor (Homo sapiens, UniProt P35372). It counts as functional, cell-based.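 Note: U2OS cells with beta-arrestin recruitment to OPRM1 by beta-gal complementation.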
Test [19] has as its target Induced myeloid leukemia cell differentiation protein Mcl-1 (Homo sapiens, UniProt Q07820). The class given is functional.
The target in test [20] is T4, Runt-related transcription factor 1/Core-binding factor subunit beta. Nature of the test: Confirmation of compounds inhibiting the binding between the RUNX1 Runt domain and CBFb-SMMHC via a fluorescence resonance energy transfer (FRET) assay. [Related pubchem assays (depositor defined):AID1434, AID1438, AID1496, AID1550, AID1645]. The class given is protein assay.

Test [21] addresses DNA dC->dU-editing enzyme APOBEC-3G (Homo sapiens, UniProt Q9HC16). The experiment in a line: Dose Response confirmation of small molecule APOBEC3G DNA Deaminase Inhibitors via a fluorescence-based single-stranded DNA deaminase assay. [Related pubchem assays (depositor defined):AID493012, AID493028]. The class given is functional.
The target in test [22] is T6, RNA-binding protein pos-1 (Caenorhabditis elegans, UniProt G5EF15).
T6 sequence (G5EF15 whole entry): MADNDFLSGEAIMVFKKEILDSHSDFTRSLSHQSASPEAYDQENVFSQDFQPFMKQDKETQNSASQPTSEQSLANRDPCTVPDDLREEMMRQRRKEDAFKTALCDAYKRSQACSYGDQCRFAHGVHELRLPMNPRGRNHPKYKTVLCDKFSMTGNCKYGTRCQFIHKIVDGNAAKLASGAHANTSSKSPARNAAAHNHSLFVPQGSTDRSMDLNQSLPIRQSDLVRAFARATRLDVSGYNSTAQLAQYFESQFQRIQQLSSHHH
The experiment in a line: inhibitors of POS-1/mex-3 RNA binding, dose response, biochemical, fluorescence polarization (AID 1964).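 Note: purified POS-1 fused to maltose binding protein made in E. coli; potency of compounds blocking POS-1 binding to fluorescent RNA.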

Test [23] concerns the target Glucose-6-phosphate 1-dehydrogenase (Homo sapiens, UniProt P11413). Nature of the test: human G6PD enzyme inhibitors, dose response, selectivity assay for P. falciparum G6PD inhibitor project, biochemical, fluorescence (AID 504792). It counts as functional.

“And” between values parts separate entries of the source, which are not always exact repeats. Identical values can stand only once. Counter-ions that a name gives are not always drawn. The source made the active and inactive calls.

Take `O=C(/C=C/c1nc2ccccc2s1)N1CCCCCC1`: the EC50 in test [1] was > 71.5 µM (inactive).

In the case of `CC1=CC(=O)c2ccccc2C1=O` [MENADIONE], the IC50 in test [2] was 7.9 µM (active); in [4], 9.47 µM (active). Besides, the AC50 in [3] is 6.31 µM (inconclusive).

As for `COc1ccc(NC(=O)Cc2ccc(C)cc2)c([N+](=O)[O-])c1`, the IC50 was > 100 µM (inactive) in test [5] and > 100 µM (not active) in [6].

With `CN1CCc2cccc3c2[C@H]1Cc1ccc(O)c(O)c1-3` [APOMORPHINE HYDROCHLORIDE], the EC50 was 4.42 µM (active) in test [7]; 6.41 nM (active) and 8.15 nM (active) in test [12]; 92.5 µM (inactive) and 92.4 µM (inactive) in [18]; 16.9 µM (inconclusive) in test [22]. Also, the AC50 in test [8] was 7.1 µM (active). The IC50 in test [9] is > 64 µM (inactive); in [10], 74.8 µM (active); in test [11], 18.9 µM (active); in [13], 9.66 µM (active); in [14] it was > 100 µM (active) and 15.3 µM (active); in test [15], 14.6 µM (active). Moreover, the IC50 in test [16] is 9.81 µM (active); in test [19], 4.38 µM (active); in [20] it was 13.4 µM (active); in [21], 26.2 µM (active); in test [23] it was 34.6 µM (inactive). In test [17], the CC50 was 16.9 µM (active).

By EC50 is commonly meant the midpoint of the concentration-response curve. One may read the IC50 as the concentration at which inhibition is half-maximal. As a reminder, the AC50 is the midpoint of the concentration-response curve, whichever way the signal moves. As a reminder, the CC50 is the concentration that lowers cell viability or growth by half.
